Assay results reported in patent US6025340A, “Surface expression of enzyme in gene directed prodrug therapy” (priority 1994, dated 2000).

Tests used:
[1] = test system: MDA MB361 transfected cells (CPG2-expressing line and control line); assay: Sulphorhodamine B cytotoxicity assay; assay type: cell-based; settings: 4 days incubation
Experimental: Prodrug 2 was also assayed (FIG. 12) in the MDA MB361 transfected cells obtained in Preparative Example 3 using a sulphorhodamine B cytotoxicity assay which was conducted by plating 5000 cells per well in a 96-well microtitre dish. The cells were plated in 160 μl of DMEM medium. After incubation over night the drug or appropriate controls made up in DMEM containing 5% serum was added to the wells in a 40 μl volume. The cells were incubated for 4 days under standard conditions. Following this the medium was removed and the cells treated with ice-cold 10% TCA (trichloroacetic acid) on ice for about 30 minutes. The TCA was removed and the cells rinsed for adding 18 μl of 0.4% sulphorhodamine B (SRB) which was left to stain the cells for 10 minutes. Following staining the cells were rinsed in TCA and air dried before addition of 18 μl of 10 mM TRIS and cell viability was then read. […] (see FIG. 12)

[2] = test system: MDA MB 361 cell line M2 constitutively expressing β-galactosidase; assay: Cell viability by [3H]-thymidine incorporation, stable control line; assay type: cell-based
Experimental: (§1) CPG2(surface) QQQ was cloned into pMCEF-Plink as an Nco1/Xba fragment; this plasmid is called pMCEFCPG2(surface)QQQ. MDA361B cells were transfected with either pMCEFCPG2(surface)QQQ, or with pMCEFlacZ according to the protocol described in the Comparative Example and were treated as for the NIH3T3 cells to generate G418 colonies. The G418 resistant colonies were tested for CPG2(surface)QQQ expression by immunoprotein blot analysis, as described for the NIH3T3 cells. From these analyses, two cell lines, M2 which expresses β-galactosidase and M38, which expresses CPG2(surface)QQQ were selected for further testing. […] The expression of β-galactosidase by line M2 was confirmed by enzymatic assay (FIG. 10B, lane 1 contains M2 extract, lane 2 a control extract).
These cell lines were tested for sensitivity to the CMDA prodrug and prodrug 2. 1×10^5 cells were plated into each well of a 24 well plate. The cells were incubated for 48 hours at 37° C. […] The viability of the cells was then determined by using [^3 H]-thymidine incorporation.
In order to examine the bystander effect with the MDA MB 361 cells constitutively expressing CPG2(surface)QQQ, the M38 cell line, the M2 cell line, or a 1:10 mixture of M38: M2 cells were plated (1×10^4 cells) into the wells of a 24 well plate, and incubated for 48 hours. […] The survival of the cells was then determined by [^3 H-methyl] thymidine incorporation.

[3] = test system: mixture of NIH3T3 cell lines #3 and #16; assay: Bystander effect, mixed cell lines, [3H]-thymidine incorporation; assay type: cell-based, murine; settings: 40% of the cells expressing CPG2(surface)LNLL; 250 μM or 1000 μM CMDA for 60 minutes
Experimental: Cell lines #3 and #16 obtained in Preparative Example 2 were tested for cytotoxicity with the CMDA pro-drug. 1×10^5 cells were plated into each well of 24 well dishes, incubated for 40 hours and then treated with increasing concentrations of CMDA at 37° C. for 60 minutes. After a further 6 hour incubation, 10% of the cells were re-plated into 24 well dishes, incubated for a further 5 days and cell survival was determined by [^3 H]-thymidine incorporation.
The bystander effect was determined by mixing cell lines #3 and #16 obtained in Preparative Example 2 at a variety of concentrations as indicated and a total of 1×10^5 cells were plated per well in 24 well plates. The cells were incubated and treated as described in Example 3, except that they were treated with either 250 μM or 1000 μM CMDA for 60 minutes as indicated. The cell survival was determined as in Example 3.

[4] = test system: NIH3T3 cell line #3 constitutively expressing β-galactosidase; assay: Cell survival by [3H]-thymidine incorporation, stable control line; assay type: cell-based, murine; settings: increasing concentrations, 60 minutes at 37° C.
Experimental: (§2) Stable cell lines were prepared with NIH3T3 cells to constitutively express CPG2 (surface) LNLL, or as a control the lacZ gene product (β-galactosidase). In order to do this, NIH3T3 cells were transfected with pMCEF-CPG2(surface)LNLL or pMCEFlacZ as described in Comparative Example 1 above, and two days after transfection, the cells were plated at low density into medium containing G418 at 1 mg/ml. Colonies coming from single cells could be observed about two weeks later and these were cloned and grown up individually. The expression of CPG2(surface) was determined by immunoprotein blotting of […] of cell extract (extracted as described in the Comparative Example above) from each of the G418 resistant colonies with the antiserum from the Comparative Example 1 above. The cell line #16 which expresses high levels of CPG2(surface)LNLL (FIG. 6A) and cell line #3, which expresses the β-galactosidase (see below) were selected for further investigation. […] 250 μl of 1 MNa2 CO3 was added to the sample and the OD420 was measured.
(§3) Cell lines #3 and #16 obtained in Preparative Example 2 were tested for cytotoxicity with the CMDA pro-drug. […] After a further 6 hour incubation, 10% of the cells were re-plated into 24 well dishes, incubated for a further 5 days and cell survival was determined by [^3 H]-thymidine incorporation.

[5] = test system: NIH3T3 cell line #16 constitutively expressing CPG2(surface)LNLL; assay: Cell survival by [3H]-thymidine incorporation, stable line; assay type: cell-based, murine; settings: Mus musculus, 60 minutes treatment at 37° C., survival after 5 days
Experimental: as §2, §3

[6] = test system: NIH3T3 cells transfected with MLVCPG2(surface)LNLL; assay: Cytotoxicity assay, [3H]-thymidine incorporation, transiently transfected cells; assay type: cell-based, murine; settings: CMDA 0.5 mM
Experimental: (§4) The ability of CPG2(surface) to kill NIH3T3 cells in the presence of the CMDA pro-drug was examined. Three sets of NIH3T3 cells were prepared, each of which contained one dish of cells transfected with MLVβplink, one dish of cells transfected with MLVCPG2(surface) or one dish of cells transfected with MLVCPG2(surface)LNLL. The cells were incubated for 42 hours following the transfection and then set 1 was incubated in the presence of prodrug vehicle (5 mM Hepes, 0.5% v/v DMSO, pH7.0; final concentrations) for 24 hours. Set 2 was incubated in the presence of the CMDA prodrug (0.5 mM final concentration) for 3 hours. Set 3 was incubated in CMDA (0.5 mM) for 24 hours. Following prodrug treatment, the cells were washed three times with 5 ml 10% FCS/ DMEM and sets 1 and 3 incubted in fresh medium for a further 24 hours, set 2 for 45 hours. The cells were then passaged into fresh culture dishes, seeded at 1×10^5 cells/ 35 mm dish in 2 ml FCS/ DMEM. After a further 72 hour incubation cell growth was assessed by [3H]-thymidine incorporation.
(§5) For thymidine incorporaion, 1 μCi of [methyl-^3 H]thymidine was added to each well (2 ml medium) and incubated for 5 hours at 37° C. The cells were washed twice with PBSA (4° C.) and fixed with 5% w/v trichloroacetic acid (TCA) in water at 4° C. for 20 minutes. The TCA was removed and the cells washed twice with 2 ml methanol and air dried. The DNA was extracted with 1 ml 0.1 M NaOH, 1% SDS at room temperature for 5 minutes, added to 4 ml scintilation fluid and the incorporated thymidine determined by scintillation counting.

[7] = test system: NIH3T3 cells transfected with MLVCPG2(surface); assay: as above; assay type: cell-based, murine; settings: CMDA 0.5 mM
Experimental: as §4, §5

[8] = test system: NIH3T3 cells transfected with MLVβplink; assay: Cytotoxicity assay, [3H]-thymidine incorporation, transiently transfected control cells; assay type: cell-based, murine; settings: CMDA 0.5 mM for 3 hours or 24 hours
Experimental: as §4
For thymidine incorporaion, 1 μCi of [methyl-^3 H]thymidine was added to each well (2 ml medium) and incubated for 5 hours at 37° C. […] The DNA was extracted with 1 ml 0.1 M NaOH, 1% SDS at room temperature for 5 minutes, added to 4 ml scintilation fluid and the incorporated thymidine determined by scintillation counting.

[9] = test system: MDA MB 361 cell line M38 constitutively expressing CPG2(surface)QQQ; assay: Cell viability by [3H]-thymidine incorporation, stable line; assay type: cell-based; settings: for sensitivity to prodrug compared with line M2: 60 minutes at 37° C., viability after 5 days
Experimental: as §1
These cell lines were tested for sensitivity to the CMDA prodrug and prodrug 2. 1×10^5 cells were plated into each well of a 24 well plate. The cells were incubated for 48 hours at 37° C. They were then incubated in increasing concentrations of either CMDA or prodrug 2 for 60 minutes at 37° C., washed twice, returned to medium and incubated for a further 5 days. The viability of the cells was then determined by using [^3 H]-thymidine incorporation.
(§6) In order to examine the bystander effect with the MDA MB 361 cells constitutively expressing CPG2(surface)QQQ, the M38 cell line, the M2 cell line, or a 1:10 mixture of M38: M2 cells were plated (1×10^4 cells) into the wells of a 24 well plate, and incubated for 48 hours. The cells were then treated with varying concentrations of prodrug 2 for 60 min, washed twice with fresh medium and incubated in fresh medium for 5 days. The survival of the cells was then determined by [^3 H-methyl] thymidine incorporation.

[10] = test system: 1:10 mixture of M38:M2 MDA MB 361 cells; assay: Bystander effect, mixed cell lines, [3H]-thymidine incorporation; assay type: cell-based; settings: Example 7
Experimental: as §6

Compound | difference in susceptibility, CPG2-expressing line versus control line [1] | sensitivity to prodrug ([2]; 60 minutes at 37° C., up to highest concentration tested) | cells killed [3] | sensitivity to prodrug (cell survival) [4] | IC50 [5] [µM] | effect of prodrug treatment on cell growth ([6]; 24 hour prodrug treatment) | inhibition at 500 µM ([6]; Mus musculus, NIH3T3, 3 hour prodrug treatment, read-out: reduction in cell growth) [%] | effect of prodrug treatment on cell growth ([7]; 3 hour prodrug treatment) | inhibition at 500 µM ([7]; Mus musculus, NIH3T3, 24 hour prodrug treatment, read-out: inhibition of cell growth) [%] | effect of prodrug treatment on growth rate [8] | sensitivity to prodrug compared with line M2 [9] | IC50 ([2]; Example 7, 60 min treatment, survival after 5 days) [µM] | fold change of IC50 in 1:10 mixture versus M2 [10] [fold] | fold more sensitive, M38 cells versus M2 cells ([9]; Example 5, 1×10^5 cells per well, 60 minutes treatment) [fold]
[NH2][Pt]([NH2])([Cl])[Cl] [CDDP, Cisplatin] | not found to be any difference | – | – | – | – | – | – | – | – | – | – | – | – | –
CS(=O)(=O)OCCN(CCCl)c1ccc(C(=O)N[C@@H](CCC(=O)O)C(=O)O)cc1 [CMDA, N-4-[(2-chloroethyl)(2-mesyloxyethyl)amino]benzoyl-L-glutamic acid] | – | did not show any sensitivity | greater than 80% | not sensitive to even the highest concentration | 125 | complete cell death | -20 | unaffected | -87 | minimal effect | more sensitive | – | – | –
O=C(O)CC[C@H](NC(=O)Oc1ccc(N(CCI)CCI)cc1)C(=O)O [prodrug 2, N-(4-[bis(2-iodoethyl)amino]phenoxycarbonyl)-L-glutamic acid] | – | – | – | – | – | – | – | – | – | – | more sensitive | ~200 | -10 | ~200
